Source: US11420984B2, “Arginase inhibitors and methods of use thereof” (AstraZeneca AB, priority 2018, dated 2022)
Where two headings read alike, the source gives them in different places. Marks after values point to notes of the source that are not given here.

Tests used:
[1] = Bioavailability / pharmacokinetic study in male rats (IV and PO); format: in vivo, rat; details: plasma; for Vd: read-out: Vdss
Protocol: Example 8 was formulated in 0.9% w/v saline pH 4 (adjusted with 1M HCl) for IV dosing. The formulation was dosed at 2 mg/kg by femoral catheter to two male rats each (170-250 g). Jugular vein catheter serial blood samples were taken at 0.033, 0.083, 0.167, 0.5, 1, 2, 4, 8, and 24 hrs post-dose. For PO dosing, Example 8 was formulated in deionized water pH 4 (adjusted with 1M HCl) and dosed at 5 mg/kg by oral gavage to two male rats each (170-250 g). Serial blood samples were taken by jugular vein catheter at 0.25, 0.5, 1, 1.5, 2, 3, 4, 8, and 24 hrs post dose. Plasma samples were generated from blood using low speed centrifugation. […] The samples and standards were extracted by precipitation with two volumes of acetonitrile followed by centrifugation. […] Where appropriate, measured and not nominal doses were used to calculate bioavalability.

[2] = as above; format: in vivo; details: Example 7 when dosed as payload, male rat
Human Arginase 2 = Human Arginase 2 (Homo sapiens (Human), UniProt P78540); assay: Human Arginase 2 enzyme inhibition (thioarginine/DTNB absorbance assay); format: biochemical; details: recombinant enzyme 5 nM, 0.5 mM thioarginine premix, 60 min
Protocol: (§1) The thiol group was detected with Ellman's reagent, 5,5′-dithiobis(2-nitrobenzoic acid) (DTNB). DTNB reacts with the thiol to give the mixed disulfide and 2-nitro-5-thiobenzoic acid (TNB) which is quantified by the absorbance of the anion (TNB^2−) at 412 nm.
(§2) The assays were run in clear 384 well plates (Greiner cat no: 781101). […] Two pre-mixes were prepared from reagents thawed immediately before addition to assay plates. Pre-mix one comprised human Arginase 1 or human Arginase 2, at a final concentration of 5 nM and 0.5 mM DTNB in assay buffer, 45 mM HEPES pH7.5, brij 35, 0.045% (w/v) and 100 μM MnCl2. Pre-mix two comprised freshly thawed 0.5 mM thioarginine in assay buffer.
(§3) Assay plates were centrifuged prior to reading absorbance at 412 nm in a Pherastar multi-mode plate reader to collect data at time point 0 (T0). The plates were incubated at room temperature for 60 min prior to reading again to collect data at time point 1 (T1). Data is derived by subtracting the A412 signal measured at T0 (time point 0) from that measured at T1 (time point 1). The data was transformed to % effect using the equation: Compound % effect=100*[(X−min)/(max−min)], where X represents the normalized value for the compound based on the Min (vehicle) and Max (reference compound) inhibition control.

Human Arginase 1 = Human Arginase 1 (Homo sapiens (Human), UniProt P05089); assay: Human Arginase 1 enzyme inhibition (thioarginine/DTNB absorbance assay); format: biochemical; details: recombinant enzyme 5 nM, 0.5 mM thioarginine premix, 60 min
Protocol: as §1, §2, §3

[3] = Interconversion of Compound B to Compound A observed by NMR; format: physicochemical
Text: Compound B (Example 19) was obtained by the intramolecular cyclization of Example 9 (Compound A) via an interconversion process. Furthermore, interconversions between Compound A (Example 9) and Compound B were observed under various conditions. For example, Compound B was converted to Compound A in the presence of water and such conversion was proportional to the concentration of water in the solvent. […] In d6-DMSO, compound B predominates, while there is a proportional increase in compound A with increase in D2O concentration. The proportion of compound A relative to compound B in 100% D2O reaches approximately 90%. Furthermore, Compound B was converted to Compound A under acidic condition.

[4] = pro-drug itself, observed when dosed as pro-drug, male rat, IV 2 mg/kg
[5] = pro-drug itself, observed when dosed as pro-drug, male rat, PO 5 mg/kg

Sequence of Human Arginase 2 (P78540 23-354): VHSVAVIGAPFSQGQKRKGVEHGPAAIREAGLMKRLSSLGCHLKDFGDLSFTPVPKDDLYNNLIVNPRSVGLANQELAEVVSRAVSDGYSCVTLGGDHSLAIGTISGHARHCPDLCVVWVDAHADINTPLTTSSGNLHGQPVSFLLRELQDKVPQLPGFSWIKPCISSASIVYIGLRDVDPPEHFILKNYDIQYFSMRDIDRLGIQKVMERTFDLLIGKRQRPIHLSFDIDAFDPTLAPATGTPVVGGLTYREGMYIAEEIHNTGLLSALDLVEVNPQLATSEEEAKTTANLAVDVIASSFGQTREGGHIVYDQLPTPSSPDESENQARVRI
Sequence of Human Arginase 1 (P05089 whole entry): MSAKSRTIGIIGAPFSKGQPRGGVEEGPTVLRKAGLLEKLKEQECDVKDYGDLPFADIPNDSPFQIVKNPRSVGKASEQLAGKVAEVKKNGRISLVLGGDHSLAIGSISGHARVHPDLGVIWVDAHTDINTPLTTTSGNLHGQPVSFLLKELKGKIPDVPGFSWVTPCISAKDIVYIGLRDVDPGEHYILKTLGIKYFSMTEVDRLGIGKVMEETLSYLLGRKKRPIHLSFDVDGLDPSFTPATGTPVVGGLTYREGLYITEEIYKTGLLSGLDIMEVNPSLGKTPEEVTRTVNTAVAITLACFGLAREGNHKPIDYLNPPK

clearance ([1]; male, rat, iv) [mL/min/kg] | Vd ([1]; male, rat, iv) [L/kg] | Cl (mL/min/kg) [2] | Vdss (L/kg) [2] | IC50 (Human Arginase 2) [nM] | IC50 (Human Arginase 1) [nM] | clearance [1, 4] [mL/min/kg] | Vd [1, 4] [L/kg] | AUC [1, 5] [µM·h] | Cmax [1, 5] [nM] | Tmax [1, 5] [min] | bioavailability ([1]; pro-drug itself, observed when dosed as pro-drug, male rat, PO 5 mg/kg vs IV 2 mg/kg) [%] | conversion to compound A under acidic condition ([3]; compound B in 0.1 M DCl in D2O) | proportion of compound A relative to compound B ([3]; compound B in 100% D2O) | Compound
8.9 | 0.26 | 8.90 * mL/min/kg | 0.26 * L/kg |  |  |  |  |  |  |  |  |  |  | N[C@H]1CN[C@@](CCCCB(O)O)(C(=O)O)C1 [Example 7, (2R,4R)-4-amino-2-(4-boronobutyl)pyrrolidine-2-carboxylic acid]
 |  |  |  | 280 | 220 | 36.8 | 0.2 | 0.21 | 330 | 15 | 2.5 | almost complete conversion to compound A | approximately 90% | CC(C)[C@H](N)C(=O)N[C@H]1CN[C@]2(CCCCB(O)OC2=O)C1 [Example 19, (S)-2-amino-N-((3R,5R)-8-hydroxy-6-oxo-7-oxa-1-aza-8-boraspiro[4.7]dodecan-3-v1)-3-methylbutanamide]
